One assay deals with mCB1R (Mus musculus (Mouse), UniProt P47746). In words: [3H]CP-55,940 competition displacement binding, crude membranes from mouse brain. The following applies: for Ki: read-out: Ki (nM) mCB1R. The procedure:
(§1) Affinity for Cannabinoid Receptors. The compounds were further characterized using a radioligand binding assay to determine their affinities for CB1R and CB2R based on each test compound's ability to displace the radiolabeled CB1R/CB2R agonist CP-55,940 from membranes prepared from a mouse brain (a source of CB1R) and membranes of cells expressing the human CB2R. […] Therefore, the compounds were assayed using membranes from CHO-K1 cells expressing the human CB2R (hCB2R).
(§2) Membranes from cells expressing human CB2R were purchased from Charles River, (Cat #A308; Ohio, US). Solutions of test compounds ranging from 0.1 nM to 10 mM were prepared in DMSO. The desired amount of membrane preparation was diluted with ice-cold assay buffer (50 mM Tris-HCl, 2.5 mM EDTA, 5 mM MgCl2, 0.1% BSA, pH 7.4) and was vortexed. […] The assays were incubated for 90 minutes at 30° C. and then immediately filtered on WHATMAN GF/B FilterPaper (Fired) using a Brandel M-24R Harvester followed by six washes with ice cold wash buffer (50 mM Tris-HCl, 2.5 mM EDTA, 5 mM MgCl2, 0.1% BSA, pH 7.4). Radioactivity was detected by adding the FilterPaper directly to the ULTIMA GOLD scintillation cocktail (PerkinElmer), incubation at 20° C. for 60 min and then counted using a Tri-Carb 4910TR liquid scintillation counter.

Assay [1] deals with T1, hCB2R (Homo sapiens (Human), UniProt P34972). In words: [3H]CP-55,940 competition displacement binding, membranes of CHO-K1 cells expressing human CB2R. How it is done:
as §1, §2

Assay [2] deals with T1, hCB2R. Briefly: [35S]GTPγS binding assay, hCB2R CHO cell membranes. The assay is classed as biochemical. The following applies: for functional activity at hCB2R (agonist / inverse agonist): [35S]GTPγS binding; for pEC50: [35S]GTPγS binding to hCB2R, two independent experiments in triplicate; for E(max) %: percentage of HU-308 response at 1 μM. How it is done: Functional Characterization.
The method used for measuring agonist-stimulated binding of [^35S]GTPγS was based on a described protocol. The assays were carried out with GTPγS assay buffer (50 mM Tris HCl (pH 7.4), 0.2 mM EGTA, 9 mM MgCl2, 150 mM NaCl, 1 mg/ml BSA). Briefly, membranes (5 μg protein) were incubated in assay buffer containing 100 μM GDP, 0.05 nM [^35S]GTPγS, test compounds at various concentrations in siliconized glass tubes. Bound ligand was separated from free ligand by vacuum filtration. Nonspecific binding was determined using 10 μM GTPS. Basal binding was assayed in the absence of the ligand and in the presence of GDP.
A general note: GTPγS is a poorly hydrolysed GTP analogue; its binding reports G protein activation.

Setting [3] is: displacement of [3H]CP-55,940, NB = No binding detected at concentrations up to 10 μM.
Where [4] appears, read: >10 μM = Displacement of radioactive ligand detected at high concentrations competing ligand, read-out: Ki mCB1R.

SMILES strings stand for the structures. pEC50, pIC50, pKi: −log10 of the molar value. “Also recorded” adds a separate entry of the source. Read-outs that look alike come from different tables or passages of the source. Where only a bound is given, the exact number is not on record here.

The values below come from patent publication US20250002435A1, “ARYLATED FENCHONE DERIVATIVES, COMPOSITIONS COMPRISING THEM, PROCESSES FOR THEIR PREPARATION AND USES THEREOF” (priority 2021, published 2025).

T1 sequence (P34972 whole entry): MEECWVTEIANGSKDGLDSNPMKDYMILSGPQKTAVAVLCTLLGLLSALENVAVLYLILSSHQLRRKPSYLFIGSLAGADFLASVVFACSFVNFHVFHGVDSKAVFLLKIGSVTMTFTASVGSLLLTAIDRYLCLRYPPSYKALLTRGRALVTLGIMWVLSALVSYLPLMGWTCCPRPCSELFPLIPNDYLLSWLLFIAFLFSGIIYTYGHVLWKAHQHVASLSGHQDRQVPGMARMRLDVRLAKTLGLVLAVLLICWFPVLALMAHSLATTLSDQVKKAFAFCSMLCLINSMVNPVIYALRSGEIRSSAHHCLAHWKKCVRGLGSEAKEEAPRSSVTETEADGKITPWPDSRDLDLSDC
Sequence of mCB1R (P47746 whole entry): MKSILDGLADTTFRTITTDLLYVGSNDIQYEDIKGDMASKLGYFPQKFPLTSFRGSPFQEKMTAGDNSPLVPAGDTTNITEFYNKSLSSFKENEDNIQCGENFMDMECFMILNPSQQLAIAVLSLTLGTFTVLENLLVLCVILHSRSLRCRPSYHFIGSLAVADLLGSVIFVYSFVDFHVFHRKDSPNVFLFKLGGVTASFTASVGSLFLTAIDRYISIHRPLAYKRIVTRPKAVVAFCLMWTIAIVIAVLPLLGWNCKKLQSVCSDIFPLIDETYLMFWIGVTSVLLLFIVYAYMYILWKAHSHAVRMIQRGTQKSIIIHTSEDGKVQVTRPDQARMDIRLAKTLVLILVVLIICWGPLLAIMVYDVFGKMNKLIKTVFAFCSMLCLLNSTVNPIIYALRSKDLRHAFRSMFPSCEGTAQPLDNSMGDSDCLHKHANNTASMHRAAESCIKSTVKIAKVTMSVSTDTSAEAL

`CCCCCCC(C)(C)c1cc(OC)c([C@@]2(O)C3(C)CCC(C3)C2(C)C)c(OC)c1` (stereo partly drawn) [Compound 1c, 2-(2,6′-dimethoxy-4′-(2″-methyloctan-2″-yl)phenyl)-1,3,3-trimethyl-bicyclo[2.2.1]heptan-2-ol]: the Ki (as a rule, a dissociation constant, usually derived from enzyme kinetics or from competition with a known ligand) at mCB1R (setting [3]) is greater than 10000 nM. At hCB2R [1] (displacement of [3H]CP-55,940), this molecule had a Ki of 56.8 nM. Besides, at hCB2R [2], the “functional activity at hCB2R (agonist / inverse agonist)” value was “agonist”; the pEC50 (commonly −log10 of the EC50, conventionally taken in molar units) was 6.92; the “E(max) %” value is given as 87.15%.
On to `CCCc1ccc(OC)c(C2(O)C3(C)CCC(C3)C2(C)C)c1` (single isomer, unassigned) [Compound 3b, 2-(2′-methoxy-5′-propylphenyl)-1,3,3-trimethylbicyclo[2.2.1]heptan-2-ol], for which, on mCB1R (setting [3]), the Ki was greater than 10000 nM.
Regarding `CCCCCc1cc(OC)c(C2(O)C3(C)CCC(C3)C2(C)C)c(OC)c1` (single isomer, unassigned) [Compound 1a, 2-(2,6′-dimethoxy-4′-pentylphenyl)-1,3,3-trimethylbicyclo[2.2.1]heptan-2-ol], the pKi (commonly the Ki on a negative log10 scale, so that one unit is a factor of ten) at mCB1R (setting [4]) was less than 5.00. At mCB1R (in words), the “inhibition of [3H]CP-55,940 binding to mCB1R” value is “no measurable inhibition”. At hCB2R [1] (displacement of [3H]CP-55,940), this molecule had a Ki of 47.7 nM. At hCB2R [2], the “functional activity at hCB2R (agonist / inverse agonist)” value was “inverse agonist”, the pEC50 was 5.80 and the “E(max) %” value is on record as 24.08%. Moreover, the pIC50 (as a rule, the IC50 on a negative log10 scale, so that one unit is a factor of ten) on hCB2R [2] (read-out: IC50, reduction of [35S]GTPγS binding in hCB2R membrane) was 5.80.
`CCCCCc1cc(OC)c(C2(O)C3(C)CCC(C3)C2(C)C)c(OC)c1F` (single isomer, unassigned) [Compound 4b, 2-(3′-fluoro-2′,6′-dimethoxy-4′-pentylphenyl)-1,3,3-trimethylbicyclo[2.2.1]hept-an-2-ol]: the pKi on mCB1R (setting [4]) is less than 5.00. Moreover, on hCB2R [2], the “functional activity at hCB2R (agonist / inverse agonist)” value is on record as “agonist” and the pEC50 is 6.52.
In the case of `CCCCCc1ccc(OC)c(C2(O)C3(C)CCC(C3)C2(C)C)c1` (single isomer, unassigned) [Compound 3c, 2-(2′-methoxy-5′-pentylphenyl)-1,3,3-trimethylbicyclo[2.2.1]heptan-2-ol], the Ki on mCB1R was greater than 10000 nM.
On the same count and under the same terms, the figure for `CCCCCCCCc1ccc(OC)c(C2(O)C3(C)CCC(C3)C2(C)C)c1` (single isomer, unassigned) [Compound 3g, 2-(2′-methoxy-5′-octylphenyl)-1,3,3-trimethylbicyclo[2.2.1]heptan-2-ol] is greater than 10000 nM.
On to `CCCCCCC(C)(C)c1cc(O)c(C2(O)C3(C)CCC(C3)C2(C)C)c(OC)c1` (stereo not drawn) [Compound 5c, 2-(2′-hydroxy-6′-methoxy-4′-(2″-methyloctan-2″-yl)phenyl)-1,3,3-trimethyl-bicyclo[2.2.1]heptan-2-ol], for which the Ki on mCB1R (setting [3]) is greater than 10000 nM; at hCB2R [1] (displacement of [3H]CP-55,940), 107 nM.
For `CCC(C)(C)c1ccc(OC)c(C2(O)C3(C)CCC(C3)C2(C)C)c1` (single isomer, unassigned) [Compound 3e, 2-(2′-methoxy-5′-(tert-pentyl)phenyl)-1,3,3-trimethylbicyclo[2.2.1]heptan-2-ol], on mCB1R, the Ki is greater than 10000 nM.
As to `CCCCCc1ccc(OC)c(C2(O)C3(C)CCC(C3)C2(C)C)c1` (single isomer, unassigned) [Compound 3d, 2-(2′-methoxy-5′-pentylphenyl)-1,3,3-trimethylbicyclo[2.2.1]heptan-2-ol], on mCB1R (setting [3]), the Ki is greater than 10000 nM.
With `CCC(C)(C)c1ccc(OC)c(C2(O)C3(C)CCC(C3)C2(C)C)c1` (single isomer, unassigned) [Compound 3f, 2-(2′-methoxy-5′-(tert-pentyl)phenyl)-1,3,3-trimethylbicyclo[2.2.1]heptan-2-ol], the Ki on mCB1R (setting [3]) was greater than 10000 nM.
With `CCCCCCC(C)(C)c1cc(OC)c(C2(O)C3(C)CCC(C3)C2(C)C)c(OC)c1F` (single isomer, unassigned) [Compound 4c, 2-(3′-fluoro-2,6′-dimethoxy-4′-(2″-methyloctan-2″-yl)phenyl)-1,3,3-trimethyl-bicyclo[2.2.1]heptan-2-ol], the Ki was greater than 10000 nM on mCB1R (setting [3]) and 438 nM on hCB2R [1] (displacement of [3H]CP-55,940).
Turning to `CCCCCCc1ccc(OC)c(C2(O)C3(C)CCC(C3)C2(C)C)c1OC` (single isomer, unassigned) [Compound 2b, 2-(3′-hexyl-2,6′-dimethoxyphenyl)-1,3,3-trimethylbicyclo[2.2.1]heptan-2-ol], the pKi on mCB1R (setting [4]) was less than 5.00. The same molecule displayed a Ki on hCB2R [1] (displacement of [3H]CP-55,940) of 73.4 nM. Also, at hCB2R [2], the “functional activity at hCB2R (agonist / inverse agonist)” value is recorded as “weakly stimulated; also recorded: agonist” and the “E(max) %” value amounted to 46.2%.
With `COc1cc(C)cc(OC)c1C1(O)C2(C)CCC(C2)C1(C)C` (single isomer, unassigned) [Compound 1f, 2-(2,6′-dimethoxy-4′-methylphenyl)-1,3,3-trimethylbicyclo[2.2.1]-heptan-2-ol], the Ki on mCB1R (setting [3]) was greater than 10000 nM; on hCB2R [1], 233 nM.
As to `CCCc1ccc(OC)c(C2(O)C3(C)CCC(C3)C2(C)C)c1` (single isomer, unassigned) [Compound 3a, 2-(2′-methoxy-5′-propylphenyl)-1,3,3-trimethylbicyclo[2.2.1]heptan-2-ol], the Ki on mCB1R was greater than 10000 nM.
Consider `CCCCCc1cc(OC)c(C2(O)C3(C)CCC(C3)C2(C)C)c(OC)c1F` (single isomer, unassigned) [Compound 4a, 2-(3′-fluoro-2′,6′-dimethoxy-4′-pentylphenyl)-1,3,3-trimethylbicyclo[2.2.1]hept-an-2-ol], for which, on mCB1R (setting [4]), the pKi is less than 5.00.
For the molecule `CCCCCCC(C)(C)c1cc(OC)c(C2(O)C3(C)CCC(C3)C2(C)C)c(OC)c1F` (single isomer, unassigned) [Compound 4d, 2-(3′-fluoro-2,6′-dimethoxy-4′-(2″-methyloctan-2″-yl)phenyl)-1,3,3-trimethyl-bicyclo[2.2.1]heptan-2-ol], the Ki on mCB1R (setting [3]) was greater than 10000 nM. The molecule also returned a Ki on hCB2R [1] (displacement of [3H]CP-55,940) of 56.6 nM. Moreover, on hCB2R [2], the “functional activity at hCB2R (agonist / inverse agonist)” value was “agonist”, the pEC50 was 6.98 and the “E(max) %” value worked out at 118.7%.
On to `COc1cc(C)cc(OC)c1C1(O)C2(C)CCC(C2)C1(C)C` (single isomer, unassigned) [Compound 1e, 2-(2,6′-dimethoxy-4′-methylphenyl)-1,3,3-trimethylbicyclo[2.2.1]-heptan-2-ol], for which the Ki at mCB1R is greater than 10000 nM.
Turning to `CCCCCCc1ccc(OC)c(C2(O)C3(C)CCC(C3)C2(C)C)c1OC` (single isomer, unassigned) [Compound 2a, 2-(3′-hexyl-2,6′-dimethoxyphenyl)-1,3,3-trimethylbicyclo[2.2.1]heptan-2-ol], the results for the Ki on mCB1R (setting [3]) and at hCB2R [1] (displacement of [3H]CP-55,940) were greater than 10000 nM and 224 nM, respectively.
Take `CCCCCCCCc1ccc(OC)c(C2(O)C3(C)CCC(C3)C2(C)C)c1` (single isomer, unassigned) [Compound 3h, 2-(2′-methoxy-5′-octylphenyl)-1,3,3-trimethylbicyclo[2.2.1]heptan-2-ol]: the Ki on mCB1R (setting [3]) is greater than 10000 nM.
In turn, `CCCCCCC(C)(C)c1cc(OC)c([C@@H]2C=C(CO)[C@@H]3C[C@H]2C3(C)C)c(OC)c1` [HU-308, reference compound] showed a negative-log Ki (pKi) at mCB1R of less than 5.00. Besides, at hCB2R [2], the “functional activity at hCB2R (agonist / inverse agonist)” value is “agonist” and the “E(max) %” value is given as 100%.
